Results reported in PubChem BioAssay (NCI).
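Dose response: 5 concentrations. Exposure: 48 h. Format: 96-well plates. Endpoint: linear interpolation; highest concentration if not reached. GI50 = concentration required for 50% inhibition of growth. At the TGI there is no net growth.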

How the values were obtained:
Assay in all cases: NCI tumour cell line growth inhibition, 48 h
HOP-62 NSCLC = tested on: HOP-62 NSCLC
K-562 leukemia = tested on: K-562 leukemia
M14 melanoma = tested on: M14 melanoma
NCI-H522 lung = tested on: NCI-H522 lung
OVCAR-3 ovarian = tested on: OVCAR-3 ovarian
SF-268 CNS = tested on: SF-268 CNS
SK-MEL-5 melanoma = tested on: SK-MEL-5 melanoma
SR leukemia = tested on: SR leukemia
MDA-MB-435 = tested on: MDA-MB-435
NCI/ADR-RES ovarian = tested on: NCI/ADR-RES ovarian

COC(=O)C(C)(C)N=CN(C)C
TGI (HOP-62 NSCLC): > 100000 nM | TGI (K-562 leukemia): > 100000 nM | TGI (M14 melanoma): > 100000 nM | TGI (NCI-H522 lung): > 100000 nM | TGI (OVCAR-3 ovarian): > 100000 nM | TGI (SF-268 CNS): > 100000 nM | TGI (SK-MEL-5 melanoma): > 100000 nM | TGI (SR leukemia): > 100000 nM

Cc1ccc2nc(NC(=O)/C(Cc3nc4ccc(Cl)cc4[nH]c3=O)=N\NC(C)(C)C)sc2c1
TGI (K-562 leukemia): > 100000 nM | TGI (M14 melanoma): > 100000 nM | TGI (MDA-MB-435): > 100000 nM | TGI (NCI/ADR-RES ovarian): > 100000 nM | TGI (OVCAR-3 ovarian): > 100000 nM | TGI (SF-268 CNS): > 100000 nM | TGI (SR leukemia): > 100000 nM

Cc1c(C2=C(c3cn(C)c4ccccc34)C(=O)NC2=O)c2ccccc2n1C
GI50 (HOP-62 NSCLC): 2720 nM | TGI (HOP-62 NSCLC): > 25000 nM | GI50 (K-562 leukemia): 1210 nM | TGI (K-562 leukemia): > 25000 nM | GI50 (M14 melanoma): 1500 nM | TGI (M14 melanoma): > 25000 nM | GI50 (NCI-H522 lung): 969 nM | TGI (NCI-H522 lung): > 25000 nM | GI50 (NCI/ADR-RES ovarian): 3650 nM | TGI (NCI/ADR-RES ovarian): > 25000 nM | GI50 (OVCAR-3 ovarian): 882 nM | TGI (OVCAR-3 ovarian): 4730 nM | GI50 (SF-268 CNS): 4820 nM | TGI (SF-268 CNS): > 25000 nM | GI50 (SK-MEL-5 melanoma): 2290 nM | TGI (SK-MEL-5 melanoma): > 25000 nM | GI50 (SR leukemia): 1180 nM | TGI (SR leukemia): > 25000 nM

COc1ccc(C2[C@@H](Cl)C(=O)N2c2cc(OC)c(OC)c(OC)c2)cc1Cl (some centres undefined)
GI50 (HOP-62 NSCLC): 180 nM | TGI (HOP-62 NSCLC): > 100000 nM | GI50 (K-562 leukemia): 41 nM | TGI (K-562 leukemia): > 100000 nM | GI50 (M14 melanoma): 77.3 nM | TGI (M14 melanoma): 712 nM | GI50 (NCI-H522 lung): 35.3 nM | TGI (NCI-H522 lung): 296 nM | GI50 (NCI/ADR-RES ovarian): 69.2 nM | TGI (NCI/ADR-RES ovarian): > 100000 nM | GI50 (OVCAR-3 ovarian): 120 nM | TGI (OVCAR-3 ovarian): 576 nM | GI50 (SF-268 CNS): 291 nM | TGI (SF-268 CNS): 30600 nM | GI50 (SK-MEL-5 melanoma): 102 nM | TGI (SK-MEL-5 melanoma): 795 nM | GI50 (SR leukemia): 55.1 nM | TGI (SR leukemia): > 100000 nM

COc1cc2c(c(OC)c1OC)-c1ccc(SC)c(=O)cc1[C@@H](NC1OC(CO)C(O)C(O)C1O)CC2 (some centres undefined)
TGI (HOP-62 NSCLC): > 100000 nM | GI50 (K-562 leukemia): 22.7 nM | TGI (K-562 leukemia): > 100000 nM | GI50 (M14 melanoma): 31.1 nM | TGI (M14 melanoma): > 100000 nM | TGI (MDA-MB-435): 37.3 nM | GI50 (NCI/ADR-RES ovarian): 55.6 nM | TGI (NCI/ADR-RES ovarian): > 100000 nM | GI50 (OVCAR-3 ovarian): 24.4 nM | TGI (OVCAR-3 ovarian): 76.2 nM | GI50 (SF-268 CNS): 49 nM | TGI (SF-268 CNS): > 100000 nM | GI50 (SK-MEL-5 melanoma): 28.8 nM | TGI (SK-MEL-5 melanoma): 195 nM | GI50 (SR leukemia): 12.7 nM | TGI (SR leukemia): > 100000 nM

CC(C)c1c2[nH]c3ccccc3c2c(C(C)C)c2[nH]c3ccccc3c12
TGI (HOP-62 NSCLC): > 100000 nM | TGI (K-562 leukemia): > 100000 nM | TGI (M14 melanoma): > 100000 nM | TGI (NCI-H522 lung): > 100000 nM | TGI (OVCAR-3 ovarian): > 100000 nM | TGI (SF-268 CNS): > 100000 nM | TGI (SK-MEL-5 melanoma): > 100000 nM | TGI (SR leukemia): > 100000 nM

Cc1ccc(S(=O)OC2C3CC4CC(C3)CC2C4)cc1 (centres undefined)
TGI (HOP-62 NSCLC): > 100000 nM | TGI (K-562 leukemia): > 100000 nM | TGI (M14 melanoma): > 100000 nM | TGI (NCI-H522 lung): > 100000 nM | TGI (OVCAR-3 ovarian): > 100000 nM | TGI (SF-268 CNS): > 100000 nM | TGI (SK-MEL-5 melanoma): > 100000 nM | TGI (SR leukemia): > 100000 nM

CN1CCN(Cc2ccc(NC(=O)c3[nH]ncc3Nc3ncnc4sc5c(c34)CCCC5)cc2)CC1
GI50 (HOP-62 NSCLC): 286 nM | TGI (HOP-62 NSCLC): 1450 nM | GI50 (K-562 leukemia): 198 nM | TGI (K-562 leukemia): 1140 nM | GI50 (M14 melanoma): 324 nM | TGI (M14 melanoma): 1640 nM | GI50 (MDA-MB-435): 291 nM | TGI (MDA-MB-435): 1710 nM | GI50 (NCI-H522 lung): 241 nM | TGI (NCI-H522 lung): 1080 nM | GI50 (OVCAR-3 ovarian): 220 nM | TGI (OVCAR-3 ovarian): 1340 nM | GI50 (SF-268 CNS): 438 nM | TGI (SF-268 CNS): 2000 nM | GI50 (SK-MEL-5 melanoma): 543 nM | TGI (SK-MEL-5 melanoma): 1870 nM | GI50 (SR leukemia): 173 nM | TGI (SR leukemia): 527 nM

CNS(=O)(=O)NNS(=O)(=O)c1ccc(Cl)cc1
TGI (HOP-62 NSCLC): > 100000 nM | TGI (K-562 leukemia): > 100000 nM | TGI (M14 melanoma): > 100000 nM | TGI (NCI-H522 lung): > 100000 nM | TGI (OVCAR-3 ovarian): > 100000 nM | TGI (SF-268 CNS): > 100000 nM | TGI (SK-MEL-5 melanoma): > 100000 nM | TGI (SR leukemia): > 100000 nM
